From article PMC7686308, “Overcoming the blood–brain barrier by Annexin A1-binding peptide to target brain tumours” (British Journal of Cancer, 2020)
Peptide text beside a SMILES is read from it.

Legend:
human MC16 peptide = test: Plate binding assay to human MC16 peptide; conditions: biotinylated IF7C(RR) 1 μg/mL, MC16 10 nmoles coated, peroxidase-streptavidin
Description: (§1) We next assessed IF7 binding to recombinant human ANXA1 protein and human MC16 peptide in three ways (Fig. 2a-c). First, we added biotinylated IF7 in solution to plastic wells coated with monomeric MC16 and determined IF7 binding by peroxidase-conjugated streptavidin and a peroxidase colour reaction (Fig. 2a). […] Thus, we modelled the ANXA1 dimer using the Zdock module for protein–protein docking.[26] The IF7 docking pose was calculated to be −3.7 kcal/mol (Fig. 2d).
(§2) Fig. 2 Binding of IF7 to the ANXA1 N-terminal domain and full-length ANXA1 protein in vitro. a Plate binding assay of N-terminal biotinylated IF7C(RR) to human MC16 peptide and its mutants. Each synthetic MC16 and its mutant peptide (10 nmoles) was bound to maleimide-activated plastic well through its C-terminal cysteine residue. Biotinylated IF7C(RR) peptide (1 μg/mL) was added to each well and binding of biotinylated peptide was detected by peroxidase-conjugated streptavidin and peroxidase colour reaction. b FCS analysis of IF7 with ANXA1 (left) and with MC16 peptides (right) in solution. […] The proposed model was further validated by dG scoring, which was calculated using MOE software with GBVI/WSA, a program allows us to compare calculated and observed energetics.[59] The IF7 docking pose was calculated to be −3.7 kcal/mol.

[1] = tested on: MC16 mutant peptides F7A, K9A and E15A; test: Plate binding assay to MC16 mutant peptides; design: species or system human; conditions: biotinylated IF7C(RR) 1 μg/mL, mutant peptide 10 nmoles coated
Description: as §1, §2

mouse MC16 = test: Plate binding assay to mouse MC16 peptide
Description: as §2
Fig. 3 Targeting of IF7 to the brain tumour vasculature in vivo in the mouse. a Binding of IF7 and control peptides to mouse and human MC16 peptides by plate assay. Biotinylated IF7C(RR) and control C(RR) was assessed for their binding to MC16 in a similar manner as in Fig. 2a. b Targeting of fluorescent-labelled IF7 peptide to the brain tumour vasculature in the mouse. […] Blue fluorescence (left panels) represents nuclear Hoechst 33342 and green fluorescence (right) represents Alexa 488. […]

[2] = tested on: ANXA1 exhibiting a free N-terminus; test: FCS binding to ANXA1 with free N-terminus; design: species or system human; conditions: IF7C-A546, 37 °C, 1 h, increase in diffusion time
Description: (§3) A mixture of IF7C-A546 with Anxa1 or MC16 (50 μl) was loaded into each well of a 96-well plate and incubated at 37 °C for 1 h. FCS was performed with the MF20 analytical system (Olympus) using a 543 nm He–Ne laser for illumination. Each sample was measured five times with a data acquisition time of 10 sec per measurement. IF7C(RR) binding was defined as an increase in translational diffusion time relative to a control.
as §2

[3] = tested on: N-terminally His-tagged ANXA1; test: FCS binding to N-terminally His-tagged ANXA1; design: species or system human; conditions: IF7C-A546, 37 °C, 1 h, diffusion time
Description: as §3, §2

tetrameric MC16 = test: FCS binding to tetrameric MC16; design: species or system human; conditions: IF7C-A546, 37 °C, 1 h, diffusion time
monomeric MC16 = test: FCS binding to monomeric MC16; design: species or system human; conditions: IF7C-A546, 37 °C, 1 h, diffusion time
Description: as §3, §2

[4] = Histology of tumours from mice injected with IF7; assay type: in vivo, mouse; conditions: histological analysis, data not shown
[5] = tested on: ANXA1 with a free N-terminus; conditions: plate binding analysis; cited from earlier work
Description: (§4) We next assessed IF7 binding to recombinant human ANXA1 protein and human MC16 peptide in three ways (Fig. 2a-c). First, we added biotinylated IF7 in solution to plastic wells coated with monomeric MC16 and determined IF7 binding by peroxidase-conjugated streptavidin and a peroxidase colour reaction (Fig. 2a). […] Second, we assessed binding of IF7 and MC16 in solution by fluorescence correlation spectrometry (FCS) ( ...

[6] = tested on: N-terminally His-Tagged ANXA1; conditions: plate binding analysis; cited from earlier work
Description: as §4

[7] = tested on: subcutaneous colon tumours; conditions: mouse, in vivo; cited from earlier work

In the case of `CC[C@H](C)[C@H](N)C(=O)N[C@@H](Cc1ccccc1)C(=O)N[C@@H](CC(C)C)C(=O)N[C@@H](CC(C)C)C(=O)N[C@@H](Cc1c[nH]c2ccccc12)C(=O)N[C@@H](CCC(N)=O)C(=O)N[C@@H](CCCNC(=N)N)C(=O)N[C@@H](CS)C(=O)N[C@@H](CCCNC(=N)N)C(=O)N[C@@H](CCCNC(=N)N)C(=O)O` [IF7] (H-IFLLWQRCRR-OH; N-terminus and C-terminus assumed), the “IF7 binding to MC16” value (human MC16 peptide) is reported as “IF7 bound to WT MC16”, the “IF7 binding to MC16 mutants” value [1] is reported as “binding was significantly reduced” and the “binding to human and mouse MC16 compared” value (mouse MC16; Fig. 3a, human versus mouse MC16) is reported as “IF7 bound both human and mouse MC16 peptides equally”. For the same molecule, the “binding to mouse MC16” value (mouse MC16; biotinylated IF7C(RR), in a similar manner as in Fig. 2a) was “IF7 binding to N-terminal domain of mouse MC16 was confirmed”, the “binding in solution to untagged ANXA1” value [2] was “IF7 bound to ANXA1 exhibiting a free N-terminus” and the “binding in solution to N-terminally His-tagged ANXA1” value [3] was “not to N-terminally His-tagged ANXA1”. The “binding in solution to tetrameric MC16” value (tetrameric MC16) was “IF7 bound to tetrameric rather than monomeric MC16”, the “binding in solution to MC16 monomer” value (monomeric MC16) was “the diffusion time of IF7 with MC16 monomer did not increase” and the “signs of inflammation in tumours” value [4] was “did not reveal signs of inflammation”. The “plate binding to ANXA1 with free N-terminus” value [5] was “IF7 bound ANXA1 with a free N-terminus”, the “plate binding to N-terminally His-Tagged ANXA1” value [6] was “not N-terminally His-Tagged ANXA1” and the “fluorescent signals 15 min after i.v. injection” value [7] was “fluorescent signals are seen in vesicles at mostly the basal side of vasculature”. The “fluorescent signals 40 min after i.v. injection” value [7] was “fluorescence is seen in the stroma and in tumour cells”.
